Experimental data reported in PubChem BioAssay (NCI).
Several values for one entry are separate records, joined by “and”; a condition that tells them apart may be missing. Equal values may be shown once.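 Cultured in 96-well plates, cells were exposed to test compound for 48 hours across five concentrations. The concentration for 50% growth inhibition is given as GI50. TGI marks complete inhibition of growth.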

Columns and labels:
Assay in all cases: NCI anticancer screen, dose series, 48 h; in the data active = GI50 below about 0.43 µM; inactive = the rest
A549 NSCLC = system: A549 NSCLC
RPMI-8226 leukemia = system: RPMI-8226 leukemia
SNB-75 CNS = system: SNB-75 CNS
SK-MEL-28 melanoma = system: SK-MEL-28 melanoma
U251 CNS = system: U251 CNS
SR leukemia = system: SR leukemia
SNB-19 CNS = system: SNB-19 CNS
PC-3 prostate = system: PC-3 prostate
HS 578T breast = system: HS 578T breast
T-47D breast = system: T-47D breast

O=C1CCC2(c3ccc(Cl)cc3)Nc3ncccc3N12 (stereo not given)
> 100 µM: TGI (A549 NSCLC) | TGI (RPMI-8226 leukemia) | TGI (SNB-75 CNS) | TGI (SK-MEL-28 melanoma) | TGI (U251 CNS)

Clc1ccc2c(c1)[nH]c1c2nc2ccccn21
58.6 µM and 35.3 µM: TGI (SNB-19 CNS)
> 100 µM: TGI (SR leukemia)
64.7 µM and 54.5 µM: TGI (RPMI-8226 leukemia)
> 100 µM and 24.5 µM: TGI (U251 CNS)
62.4 µM and 31.3 µM: TGI (SK-MEL-28 melanoma)
> 100 µM and 37.2 µM: TGI (SNB-75 CNS)
> 100 µM and 74.2 µM: TGI (A549 NSCLC)
inactive: GI50 (SNB-75 CNS) 32.7 µM and 14.7 µM | GI50 (U251 CNS) > 100 µM and 11.9 µM

CCC(=O)CC(=O)CCC(=O)Nc1cc(C)ccc1C
> 100 µM: TGI (SR leukemia) | TGI (A549 NSCLC) | TGI (RPMI-8226 leukemia) | TGI (SNB-75 CNS) | TGI (SK-MEL-28 melanoma) | TGI (U251 CNS) | TGI (SNB-19 CNS)

CC1(C)CC(=O)C(C=NC(=S)c2ccccc2)=C(O)C1
> 100 µM: TGI (A549 NSCLC) | TGI (PC-3 prostate) | TGI (SNB-75 CNS) | TGI (SK-MEL-28 melanoma) | TGI (U251 CNS) | TGI (SNB-19 CNS) | TGI (HS 578T breast)

N#Cc1c(N)nc(N2CCOCC2)c(C#N)c1-c1ccncc1
51.7 µM: TGI (T-47D breast)
inactive: GI50 (A549 NSCLC) > 100 µM | GI50 (PC-3 prostate) 32 µM | GI50 (RPMI-8226 leukemia) > 100 µM | GI50 (SNB-75 CNS) 41.4 µM | GI50 (SK-MEL-28 melanoma) > 100 µM | GI50 (T-47D breast) 12.6 µM | GI50 (U251 CNS) > 100 µM | GI50 (SNB-19 CNS) > 100 µM | GI50 (HS 578T breast) 38.3 µM
> 100 µM: TGI (A549 NSCLC) | TGI (PC-3 prostate) | TGI (RPMI-8226 leukemia) | TGI (SNB-75 CNS) | TGI (SK-MEL-28 melanoma) | TGI (U251 CNS) | TGI (SNB-19 CNS) | TGI (HS 578T breast)

Cc1cc(Nc2ccc(NC(=O)c3ccc(Nc4ccnc5ccccc45)cc3)cc2)nc(N)n1
> 100 µM: TGI (A549 NSCLC) | TGI (RPMI-8226 leukemia) | TGI (HS 578T breast)
inactive: GI50 (A549 NSCLC) 14.6 µM | GI50 (RPMI-8226 leukemia) > 100 µM | GI50 (SNB-75 CNS) 12.2 µM | GI50 (HS 578T breast) 5.79 µM
43 µM: TGI (SNB-75 CNS)

COc1cc(Nc2ncccc2C(=O)NCc2cn(Cc3cccc(Oc4ccccc4)c3)nn2)cc(OC)c1
inactive: GI50 (A549 NSCLC) 4.02 µM | GI50 (PC-3 prostate) 4.74 µM | GI50 (RPMI-8226 leukemia) 5.25 µM | GI50 (SNB-75 CNS) 3.98 µM | GI50 (SK-MEL-28 melanoma) 4.14 µM | GI50 (T-47D breast) 4.58 µM | GI50 (U251 CNS) 4.58 µM | GI50 (SNB-19 CNS) 9.64 µM | GI50 (HS 578T breast) > 100 µM
> 100 µM: TGI (A549 NSCLC) | TGI (PC-3 prostate) | TGI (RPMI-8226 leukemia) | TGI (SNB-75 CNS) | TGI (SK-MEL-28 melanoma) | TGI (T-47D breast) | TGI (U251 CNS) | TGI (SNB-19 CNS) | TGI (HS 578T breast)

O=CCC1CCCCC1
> 100 µM: TGI (A549 NSCLC) | TGI (PC-3 prostate) | TGI (RPMI-8226 leukemia) | TGI (SNB-75 CNS) | TGI (SK-MEL-28 melanoma) | TGI (T-47D breast) | TGI (SNB-19 CNS)

CN1CC(=O)N2Cc3ccccc3-n3cccc3C2C1 (stereo not given)
> 100 µM: TGI (A549 NSCLC) | TGI (SNB-75 CNS) | TGI (SK-MEL-28 melanoma) | TGI (U251 CNS) | TGI (SNB-19 CNS)

CCCCOC(=O)CNC(=O)OC/C=C/C#CC#C/C=C/COC(=O)NCC(=O)OCCCC
> 10 µM and 88.8 µM: TGI (SNB-75 CNS)
> 100 µM: TGI (A549 NSCLC) | TGI (RPMI-8226 leukemia) | TGI (SK-MEL-28 melanoma) | TGI (U251 CNS) | TGI (SNB-19 CNS)
inactive: GI50 (A549 NSCLC) > 100 µM | GI50 (RPMI-8226 leukemia) > 100 µM | GI50 (SNB-75 CNS) > 10 µM | GI50 (SK-MEL-28 melanoma) > 100 µM | GI50 (U251 CNS) > 100 µM | GI50 (SNB-19 CNS) > 100 µM
> 10 µM: TGI (SR leukemia)

CC(=O)CCn1ncc(Cl)c(Cl)c1=O
27.2 µM: TGI (SK-MEL-28 melanoma)
44.6 µM: TGI (A549 NSCLC)
31.5 µM: TGI (SR leukemia)
> 100 µM: TGI (RPMI-8226 leukemia)
32.9 µM: TGI (SNB-19 CNS)
72 µM: TGI (SNB-75 CNS)

Nc1nc(Cl)cc(NCCCCCCCCNc2cc(Cl)nc(N)n2)n1
74.4 µM: TGI (SNB-75 CNS)
96.8 µM: TGI (SR leukemia)
> 100 µM: TGI (A549 NSCLC) | TGI (RPMI-8226 leukemia) | TGI (SK-MEL-28 melanoma) | TGI (U251 CNS) | TGI (SNB-19 CNS)
